The source of these data is publication PMC10154247, “Complex regulation in a Comamonas platform for diverse aromatic carbon metabolism” (Nature Chemical Biology, 2023).

Molecules are shown by their SMILES.

For one assay, the target named is T1, Mdh (Comamonas testosteroni, UniProt A0A096F047).
T1 construct: gene mdh_1; C-terminal His tag, start and stop codons deleted; recombinant in E. coli BL21 (DE3), Ni-NTA
Description: NAD(P)H oxidation at […] nm. The class given is biochemical. The conditions noted are these: 10 mM oxaloacetate, 5 mM MgCl2, pH 7.5, 30 °C.

For assay [1], the target named is T2, PobA (4HB 3-monooxygenase) (Comamonas testosteroni, UniProt B7WVQ9).
T2 construct: gene CtesDRAFT_PD2627; N-terminal His tag with TEV site, start codon removed; recombinant in E. coli BL21 (DE3), Ni-NTA
Description: NAD(P)H oxidation at […] nm. The class given is biochemical. The following applies: 10 mM 4HB, 5 mM MgCl2, pH 7.5, 30 °C.

In a further assay the target is T3, ME-2 (Comamonas testosteroni, UniProt B7X1D4).
T3 construct: gene CtesDRAFT_PD5092
T3 sequence (B7X1D4 2-769): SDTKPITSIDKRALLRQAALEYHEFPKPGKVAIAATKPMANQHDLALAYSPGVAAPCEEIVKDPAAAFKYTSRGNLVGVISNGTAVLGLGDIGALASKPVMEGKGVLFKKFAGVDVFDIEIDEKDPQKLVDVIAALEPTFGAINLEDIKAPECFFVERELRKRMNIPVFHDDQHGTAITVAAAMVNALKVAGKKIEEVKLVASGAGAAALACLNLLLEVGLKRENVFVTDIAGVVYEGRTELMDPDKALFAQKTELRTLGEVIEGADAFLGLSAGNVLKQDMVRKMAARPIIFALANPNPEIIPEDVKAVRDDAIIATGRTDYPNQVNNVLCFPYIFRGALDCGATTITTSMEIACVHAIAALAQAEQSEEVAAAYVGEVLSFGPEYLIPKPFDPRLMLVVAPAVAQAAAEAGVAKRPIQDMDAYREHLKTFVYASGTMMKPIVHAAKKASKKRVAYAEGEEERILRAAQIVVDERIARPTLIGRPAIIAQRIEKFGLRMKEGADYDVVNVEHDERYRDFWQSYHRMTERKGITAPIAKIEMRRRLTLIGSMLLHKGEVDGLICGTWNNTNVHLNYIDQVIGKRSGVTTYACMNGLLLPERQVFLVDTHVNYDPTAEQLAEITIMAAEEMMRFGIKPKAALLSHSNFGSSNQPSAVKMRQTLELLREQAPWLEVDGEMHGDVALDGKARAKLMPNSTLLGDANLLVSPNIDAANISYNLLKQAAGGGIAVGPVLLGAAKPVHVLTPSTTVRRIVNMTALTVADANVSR
Description: NADH formation at […] nm. The conditions noted are these: 0.5 and 2 mM, 1 mM L-malate, 0.5 mM NAD+, 5 mM MnCl2, pH 7.5, 30 °C.

A further assay has as its target T4, ME-1 (Comamonas testosteroni, UniProt B7WXG5).
T4 construct: gene CtesDRAFT_PD0934
T4 sequence (B7WXG5 2-765): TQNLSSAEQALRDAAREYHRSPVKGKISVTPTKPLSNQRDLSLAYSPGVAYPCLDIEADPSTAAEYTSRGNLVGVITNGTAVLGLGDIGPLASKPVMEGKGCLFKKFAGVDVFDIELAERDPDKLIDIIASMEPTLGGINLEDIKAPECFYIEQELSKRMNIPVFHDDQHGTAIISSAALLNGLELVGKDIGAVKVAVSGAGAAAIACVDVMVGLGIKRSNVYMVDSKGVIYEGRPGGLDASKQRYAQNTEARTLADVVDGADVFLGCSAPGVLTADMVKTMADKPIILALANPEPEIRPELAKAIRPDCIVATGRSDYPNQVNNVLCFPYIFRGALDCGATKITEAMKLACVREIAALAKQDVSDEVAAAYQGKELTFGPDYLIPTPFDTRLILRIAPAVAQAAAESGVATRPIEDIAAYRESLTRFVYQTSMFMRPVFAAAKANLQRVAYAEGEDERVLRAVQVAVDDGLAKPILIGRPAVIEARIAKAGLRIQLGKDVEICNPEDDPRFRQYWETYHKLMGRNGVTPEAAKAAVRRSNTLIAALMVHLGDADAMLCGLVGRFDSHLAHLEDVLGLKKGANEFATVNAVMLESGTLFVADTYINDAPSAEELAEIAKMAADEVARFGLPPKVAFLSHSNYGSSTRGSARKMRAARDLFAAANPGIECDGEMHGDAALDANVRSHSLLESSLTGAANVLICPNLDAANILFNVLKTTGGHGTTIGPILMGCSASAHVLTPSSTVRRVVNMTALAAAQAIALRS
As to the kind of experiment: NADPH formation at […] nm. The conditions noted are these: allosteric activator, 0.5 and 2 mM; 1 mM L-malate, 0.5 mM NADP+, 5 mM MnCl2, pH 7.5, 30 °C.

The target of the next assay is T5, PEPs (PEP synthase) (Comamonas testosteroni, UniProt B7X5R8).
T5 construct: gene CtesDRAFT_PD3828; N-terminal His tag with TEV site, start codon removed; recombinant in E. coli BL21 (DE3), Ni-NTA
T5 sequence (B7X5R8 2-796): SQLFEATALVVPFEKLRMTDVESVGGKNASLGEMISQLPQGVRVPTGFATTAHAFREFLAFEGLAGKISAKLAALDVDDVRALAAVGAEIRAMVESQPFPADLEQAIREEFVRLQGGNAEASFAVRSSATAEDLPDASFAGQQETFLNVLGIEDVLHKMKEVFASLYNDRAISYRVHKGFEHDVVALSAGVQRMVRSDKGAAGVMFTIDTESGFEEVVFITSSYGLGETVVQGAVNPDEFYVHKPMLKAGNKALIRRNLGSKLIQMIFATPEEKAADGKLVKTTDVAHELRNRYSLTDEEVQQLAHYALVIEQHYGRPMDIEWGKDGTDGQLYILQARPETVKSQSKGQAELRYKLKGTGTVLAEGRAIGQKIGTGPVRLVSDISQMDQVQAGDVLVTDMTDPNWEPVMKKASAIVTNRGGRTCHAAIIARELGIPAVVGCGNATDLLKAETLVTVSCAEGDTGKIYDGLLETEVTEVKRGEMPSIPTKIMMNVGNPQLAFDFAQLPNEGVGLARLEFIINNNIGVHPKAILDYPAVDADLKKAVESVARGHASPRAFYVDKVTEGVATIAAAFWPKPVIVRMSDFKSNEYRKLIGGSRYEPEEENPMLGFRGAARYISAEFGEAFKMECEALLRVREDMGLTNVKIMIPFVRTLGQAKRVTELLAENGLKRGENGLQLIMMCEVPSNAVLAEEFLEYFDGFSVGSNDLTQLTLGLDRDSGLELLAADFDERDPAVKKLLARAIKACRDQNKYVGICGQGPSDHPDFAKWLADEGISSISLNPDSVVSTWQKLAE
Description: pyruvate consumption by HPLC-RI. It counts as biochemical. The following applies: allosteric inhibitor, 2 or 5 mM (printed as 'up to'); 1 mM pyruvate, 1.5 mM ATP, 5 mM MgCl2, pH 7.5, 30 °C.

T1 sequence (A0A096F047 2-329): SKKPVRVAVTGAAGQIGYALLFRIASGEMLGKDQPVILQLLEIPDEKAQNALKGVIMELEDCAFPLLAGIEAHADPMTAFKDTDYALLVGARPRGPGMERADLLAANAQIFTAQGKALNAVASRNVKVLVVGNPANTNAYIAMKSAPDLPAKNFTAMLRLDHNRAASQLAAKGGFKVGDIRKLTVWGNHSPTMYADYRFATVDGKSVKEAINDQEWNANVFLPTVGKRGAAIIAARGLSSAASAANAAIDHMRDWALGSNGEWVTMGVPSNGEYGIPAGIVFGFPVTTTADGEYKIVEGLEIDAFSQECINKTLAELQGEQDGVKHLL

Take `NC(=O)C1=CN([C@@H]2O[C@H](COP(=O)(O)OP(=O)(O)OC[C@H]3O[C@@H](n4cnc5c(N)ncnc54)[C@H](O)[C@@H]3O)[C@@H](O)[C@H]2O)C=CC1` [NADH]: the “NAD(P)H oxidation at 340 nm” value on Mdh was “NADH was the preferred cofactor for ME-2 and Mdh”. Take `NC(=O)C1=CN([C@@H]2O[C@H](COP(=O)(O)OP(=O)(O)OC[C@H]3O[C@@H](n4cnc5c(N)ncnc54)[C@H](OP(=O)(O)O)[C@@H]3O)[C@@H](O)[C@H]2O)C=CC1` [NADPH]: in assay [1], the “NAD(P)H oxidation at 340 nm” value is “NADPH was the cofactor for PobA and for ME-1, IDH1 and IDH2”. Regarding `O=C(O)CCC(=O)O` [succinate], the “relative activity (%)” value on ME-2 (allosteric activator) is “moderate activation in the presence of succinate and glutamate”; at ME-1, “moderate activation in the presence of succinate and glutamate”. As for `O=C(O)CCC(=O)C(=O)O` [αKG], the “relative activity (%)” value on ME-2 (allosteric inhibitor) is reported as “only high concentrations of αKG had a significant inhibitory impact on ME-2”. On PEPs (PEP synthase), the “% decrease in pyruvate consumption” value is on record as ~ 35%.
